# Experimental data reported in patent publication US12653191B2, “Active compound combinations” (Bayer Aktiengesellschaft, priority 2020, dated 2026).
# Like-named read-outs stand apart in the source and are kept apart here.
# Experiments:
# Diaporthe citri = experiment: in vitro-Test with fungal microorganisms, Method A (tables F1-F11); type: cell-based; details: Diaporthe citri, read-out: Efficacy
# How it was run: (§1)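 Methanol/emulsifier compound solution evaporated in well; liquid potato dextrose medium + spore or mycelium suspension added; 20° C, 85% RH, 3-5 d; photometric read 620 nm; % efficacy vs untreated.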
# Cercospora beticola [1] = experiment: in vitro-Test with fungal microorganisms, Method A (tables C1-C10); type: cell-based; details: Cercospora beticola, read-out: Efficacy %
# How it was run: as §1
# Alternaria alternate = experiment: in vitro-Test with fungal microorganisms, Method A (tables A1-A12); type: cell-based, Alternaria alternata; details: Alternaria, applied alone, read-out: Efficacy %
# How it was run: as §1
# [2] = system: Ustilago segetum var. avenae; experiment: in vitro-Test with fungal microorganisms, Method A (tables I1-I5); type: cell-based; details: alone, read-out: Efficacy %
# Experimental: (§2) Example: In Vitro-Test with Fungal Microorganisms
# (§3) Wells of 96-well microtiter plates are filled with 10 μl of a preparation of test compound or compound combination in methanol+emulsifier alkylaryl-polyglycol-ether. Thereafter, the solvent is evaporated in a hood. At the next step, 100 μl of liquid potato dextrose medium is given into each well, that has been amended with an appropriate concentration of spores or mycelium suspension of the test fungus.
# (§4) With the aid of a photometer, the extinction in all wells is measured at the wavelength of 620 nm.
# (§5) The microtiter plates are incubated at 20° C. and 85% relative humidity. The inhibition of growth is determined again photometrically 3-5 days after the application. Efficacy is calculated in relation to the untreated control, 0% efficacy means fungal growth as high as in untreated control while 100% efficacy means no fungal growth is measured.
# (§6) The data in tables A1 to A12, B1 to B14, C1 to C10, D1 to D8, E1 to E8, F1 to F11, G1 to G4, H1 to H4 and I1 to I5 were collected according to Method A. The data in tables A13 to A22, B15 to B18, C11 to C20, E9 to E16, F12 to F15, G5 to G15, H5 to H8, I6 to I11 and J1 to J11 were collected according to Method B.
# Fusarium culmorum = experiment: in vitro-Test with fungal microorganisms, Method A (tables G1-G4); type: cell-based
# Experimental: as §2, §3, §4, §5, §6
# Botrytis cinerea [3] = experiment: in vitro-Test with fungal microorganisms, Method A (tables B1-B14); type: cell-based; details: Botrytis cinerea
# How it was run: as §1
# Alternaria alternata = experiment: in vitro-Test with fungal microorganisms, Method B (tables A13-A22); type: cell-based; details: Alternaria alternata, read-out: Efficacy
# How it was run: (§7)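 Steps: solvent evaporation leaves the compound coating the wells; fungus-inoculated liquid growth medium goes on top; absorbance at 600 nm is measured; incubation runs 3 to 7 days at 20° C. with 85% relative humidity. Inhibition is then read photometrically and expressed as efficacy against untreated control.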
# Colletotrichum coccodes = experiment: in vitro-Test with fungal microorganisms, Method B (tables J1-J11); type: cell-based; details: Colletotrichum coccodes, read-out: Efficacy %
# How it was run: as §7
# Cordana musae [4] = experiment: in vitro-Test with fungal microorganisms, Method B (tables E9-E16); type: cell-based; details: Neocordana musae, single active, read-out: Efficacy
# How it was run: as §7
# Cordana musae [5] = experiment: in vitro-Test with fungal microorganisms, Method A (tables E1-E8); type: cell-based; details: Neocordana musae, single substance, read-out: Efficacy %
# Experimental: as §2, §3, §4, §5, §6
# Cercospora beticola [6] = experiment: in vitro-Test with fungal microorganisms, Method B (tables C11-C20); type: cell-based; details: Cercospora beticola, read-out: Efficacy %
# How it was run: as §7
# Botrytis cinerea [7] = experiment: in vitro-Test with fungal microorganisms, Method B (tables B15-B18); type: cell-based; details: Botrytis cinerea, alone, read-out: Efficacy %
# Experimental: as §2
# as §3, with “30” for “10”, “200” for “100”, “growth” for “potato dextrose”, “given,” for “given into each well,”
# With the aid of a photometer, the extinction in all wells is measured at the wavelength of 600 nm.
# The microtiter plates are incubated for 3 to 7 days at 20° C. and 85% relative humidity. After the incubation inhibition of growth is determined photometrically. Efficacy is calculated in relation to the untreated control, 0% efficacy means fungal growth as high as in untreated control while 100% efficacy means no fungal growth is measured.
# as §6
# [8] = system: Colletotrichum lindemuthianum; experiment: in vitro-Test with fungal microorganisms, Method A (tables D1-D8); type: cell-based; details: Colletotrichum lindemuthianum, read-out: Efficacy %
# Experimental: as §2, §3, §4, §5, §6
# [9] = system: Ustilago segetum var. avenae; experiment: in vitro-Test with fungal microorganisms, Method B (tables I6-I11); type: cell-based; details: 1 ppm; read-out: Efficacy %
# How it was run: as §7
smiles,measurement,setting,value
"Cc1cc(C2=NOCC(Cc3ccc(Br)cc3C)N2)c(Oc2cccc(Cl)c2F)nn1 (racemic) [Compound I-300, rac-5-[(4-bromo-2-methylphenyl)methyl]-3-[3-(3-chloro-2-fluorophenoxy)-6-methylpyridazin-4-yl]-5,6-dihydro-4H-1,2,4-oxadiazine]",inhibition of growth at 0.0008 ppm,"Diaporthe citri; applied alone, 0.0008 ppm",0%
same,inhibition of growth at 0.004 ppm,"Diaporthe citri; applied alone, 0.004 ppm",10%
same,inhibition of growth at 0.02 ppm,"Diaporthe citri; applied alone, 0.02 ppm",22%
same,inhibition of growth at 0.1 ppm,"Diaporthe citri; applied alone, 0.1 ppm",44%
same,inhibition of growth at 0.0008 ppm,Cercospora beticola [1]; 0.0008 ppm alone,0%
same,inhibition of growth at 0.0008 ppm,Cercospora beticola [1]; 0.0008 ppm,0%
same,inhibition of growth at 0.004 ppm,Cercospora beticola [1]; 0.004 ppm alone,0%
same,inhibition of growth at 0.004 ppm,Cercospora beticola [1]; 0.004 ppm,0%
same,inhibition of growth at 0.02 ppm,Cercospora beticola [1]; 0.02 ppm alone,10%
same,inhibition of growth at 0.02 ppm,Cercospora beticola [1]; 0.02 ppm,10%
same,inhibition of growth at 0.1 ppm,Cercospora beticola [1]; 0.1 ppm alone,19%
same,inhibition of growth at 0.1 ppm,Cercospora beticola [1]; 0.1 ppm,19%
same,inhibition of growth at 0.1 ppm,Alternaria alternate; 0.1 ppm,100%
same,inhibition of growth at 0.0008 ppm,[2]; 0.0008 ppm,0%
same,inhibition of growth at 0.004 ppm,[2]; 0.004 ppm,0%
same,inhibition of growth at 0.02 ppm,[2]; 0.02 ppm,0%
same,inhibition of growth at 0.1 ppm,[2]; 0.1 ppm,0%
same,inhibition of growth at 0.0008 ppm,"Fusarium culmorum; Fusarium culmorum, 0.0008 ppm, alone, read-out: Efficacy",2%
same,inhibition of growth at 0.004 ppm,"Fusarium culmorum; Fusarium culmorum, 0.004 ppm, alone, read-out: Efficacy",6%
same,inhibition of growth at 0.02 ppm,"Fusarium culmorum; Fusarium culmorum, 0.02 ppm, alone, read-out: Efficacy",5%
same,inhibition of growth at 0.1 ppm,"Fusarium culmorum; Fusarium culmorum, 0.1 ppm, alone, read-out: Efficacy",2%
same,inhibition of growth at 0.0008 ppm,"Botrytis cinerea [3]; 0.0008 ppm, read-out: Efficacy",0%
same,inhibition of growth at 0.004 ppm,"Botrytis cinerea [3]; 0.004 ppm, read-out: Efficacy",0%
same,inhibition of growth at 0.02 ppm,"Botrytis cinerea [3]; 0.02 ppm, read-out: Efficacy",0%
same,inhibition of growth at 0.1 ppm,"Botrytis cinerea [3]; 0.1 ppm, read-out: Efficacy",49%
"O=C1c2ccccc2C(=O)N1SC(Cl)(Cl)Cl [(5.012) folpet, folpet]",inhibition of growth at 0.2 ppm,Alternaria alternata,6%
same,inhibition of growth at 1 ppm,Alternaria alternata,99%
same,inhibition of growth at 0.008 ppm,"Alternaria alternata; single compound, 0.008 ppm",6%
same,inhibition of growth at 0.04 ppm,"Alternaria alternata; single compound, 0.04 ppm",3%
same,inhibition of growth at 0.2 ppm,Alternaria alternata; single compound,7%
same,inhibition of growth at 1 ppm,Alternaria alternata; single compound,83%
same,inhibition of growth at 0.008 ppm,Colletotrichum coccodes; 0.008 ppm,1%
same,inhibition of growth at 0.04 ppm,Colletotrichum coccodes; 0.04 ppm,3%
same,inhibition of growth at 1 ppm,Colletotrichum coccodes; 1 ppm,66%
same,inhibition of growth at 0.08 ppm,"Diaporthe citri; Table F10, 0.08 ppm alone",12%
same,inhibition of growth at 2 ppm,"Diaporthe citri; Table F10, 2.0 ppm alone",99%
same,inhibition of growth at 10 ppm,"Diaporthe citri; Table F10, 10.0 ppm alone",100%
same,inhibition of growth at 0.08 ppm,"Diaporthe citri; applied alone, 0.08 ppm",1%
same,inhibition of growth at 0.4 ppm,"Diaporthe citri; applied alone, 0.4 ppm",56%
same,inhibition of growth at 2 ppm,"Diaporthe citri; applied alone, 2.0 ppm",99%
same,inhibition of growth at 0.008 ppm,Cordana musae [4]; 0.008 ppm,0%
same,inhibition of growth at 0.04 ppm,Cordana musae [4]; 0.04 ppm,0%
same,inhibition of growth at 0.2 ppm,Cordana musae [4]; 0.2 ppm,17%
same,inhibition of growth at 1 ppm,Cordana musae [4]; 1 ppm,62%
same,inhibition of growth at 0.08 ppm,Cordana musae [5]; 0.08 ppm,5%
same,inhibition of growth at 0.4 ppm,Cordana musae [5]; 0.4 ppm,10%
same,inhibition of growth at 2 ppm,Cordana musae [5]; 2.0 ppm,100%
same,inhibition of growth at 0.4 ppm,Cercospora beticola [1]; 0.4 ppm,50%
same,inhibition of growth at 2 ppm,Alternaria alternate; 2.0 ppm,100%
same,inhibition of growth at 10 ppm,Alternaria alternate; 10.0 ppm,100%
same,inhibition of growth at 0.008 ppm,Cercospora beticola [6]; 0.008 ppm,7%
same,inhibition of growth at 1 ppm,Cercospora beticola [6],100%
same,inhibition of growth at 0.04 ppm,"Cercospora beticola [6]; single compound, 0.04 ppm",0%
same,inhibition of growth at 0.2 ppm,"Cercospora beticola [6]; single compound, 0.2 ppm",16%
same,inhibition of growth at 1 ppm,Cercospora beticola [6]; single compound,86%
same,inhibition of growth at 0.008 ppm,Botrytis cinerea [7]; 0.008 ppm,8%
same,inhibition of growth at 0.04 ppm,Botrytis cinerea [7]; 0.04 ppm,1%
same,inhibition of growth at 1 ppm,Botrytis cinerea [7]; 1 ppm,16%
same,inhibition of growth at 0.08 ppm,"[8]; mixing partner alone, 0.08 ppm",0%
same,inhibition of growth at 0.4 ppm,"[8]; mixing partner alone, 0.4 ppm",0%
same,inhibition of growth at 2 ppm,"[8]; mixing partner alone, 2.0 ppm",100%
same,inhibition of growth at 10 ppm,"[8]; mixing partner alone, 10.0 ppm",100%
same,inhibition of growth at 0.08 ppm,[8]; single active at 0.08 ppm,0%
same,inhibition of growth at 0.4 ppm,[8]; single active at 0.4 ppm,13%
same,inhibition of growth at 2 ppm,[8]; single active at 2.0 ppm,98%
same,inhibition of growth at 10 ppm,[8]; single active at 10.0 ppm,100%
same,inhibition of growth at 1 ppm,[9],6%
same,inhibition of growth at 0.4 ppm,[2]; 0.4 ppm,15%
same,inhibition of growth at 2 ppm,[2]; 2.0 ppm,100%
same,inhibition of growth at 10 ppm,[2]; 10.0 ppm,100%
same,Efficacy,Fusarium culmorum; 0.4 ppm alone,0%
same,Efficacy,"Fusarium culmorum; 10.0 ppm, alone",100%
same,inhibition of growth at 0.08 ppm,"Fusarium culmorum; Fusarium culmorum, 0.08 ppm, alone, read-out: Efficacy",0%
same,inhibition of growth at 2 ppm,"Fusarium culmorum; Fusarium culmorum, 2.0 ppm, alone, read-out: Efficacy",100%
same,inhibition of growth at 2 ppm,"Botrytis cinerea [3]; alone, 2.0 ppm, read-out: Efficacy %",100%
same,inhibition of growth at 10 ppm,"Botrytis cinerea [3]; alone, 10.0 ppm, read-out: Efficacy %",100%
